Where a name gives a salt, the structure may show the parent alone. Read-outs that look alike come from different tables or passages of the source.

This note sets out measurements from patent publication US8188121B2, “Substituted pyridines as antiparasitic AZA teraryl compounds” (The University of North Carolina at Chapel Hill, priority 2005, dated 2012).

One data set has as its system DNA minor groove. The data set can be described thus: ΔTm of linear triaryl dications (DNA minor groove binding).
Data set [1] concerns Trypanosoma brucei rhodesiense (T. b. r.). The data set can be described thus: In vitro antiprotozoal activity against T. b. r. It counts as cell-based. The following applies: read-out: T. b. r. IC50. As for the experimental part:
(§1) In vitro antiprotozoal activities were measured following established protocols. See Ismail, M. A., et al., J. Med. Chem., 46, 4761-4769 (2003); Stephens, C. E., et al., Bioorg. Med. Chem. Lett., 13, 2065-2069 (2003) (in vitro assay against Leishmania donovani).
(§2) Testing methods are as described above in Example 17.

Data set [2] relates to Leishmania donovani (L. d.). Put plainly: In vitro antiprotozoal activity against L. d. Type of data set: cell-based. The following applies: read-out: L. d. IC50. As for the experimental part: as §1, §2
The subject of data set [3] is Plasmodium falciparum (P. f.). The data set can be described thus: In vitro antiprotozoal activity against P. f. Type of data set: cell-based. As for the experimental part: as §1, §2
The next data set relates to L-6 rat mycoblast cells. Put plainly: cells. As for the experimental part:
as §1, §2

The test system of data set [4] is STIB 900 strain of Trypanosoma brucei rhodesiense. The data set can be described thus: T. b. r. STIB 900 mouse model. It counts as in vivo. As for the experimental part:
The activities of compounds 20, 18, 21, 48, 23c, 24c, 5, 4, and 10 against the STIB 900 strain of Trypanosoma brucei rhodesiense (T. b. r.) in a mouse model are shown in Table 3. […] Groups of four mice were infected intraperitoneally with 2×10^5 bloodstream forms of T. b. r. STIB 900 which originates from a patient in Tanzania. On days 3, 4, 5, and 6 post-infection the experimental groups were treated with the indicated compound, either by the intraperitoneal route, or for prodrugs, by the oral route. Usually the highest tolerated dose was used. The highest tolerated dose was determined in a pretoxicological experiment.
Parasitemia of the mice was checked daily up to day 14 post-infection and thereafter 2 times per week up to day 60. One group of mice was not treated and acted as control. Untreated control animals expire between day 7 and 8 post-infection. For relapsing mice, the day of death was recorded and the survival time determined. For the data shown in Table 3, cures reflect the number of mice that survive and are parasite free for 60 days. Survival reflects the average days of survival.
as §2

Setting [5] is: Trypanosoma brucei, RHODESIENSE, Table 1, k/K = thousand.
Setting [6] is: Plasmodium falciparum, Table 1, k/K = thousand.
[7] abbreviates: Rattus norvegicus, L6, read-out: CT IC50.

A word on the ΔTm: it is the shift of the melting midpoint relative to a reference. The term IC50 denotes the concentration at which inhibition is half-maximal. One may read the melting point as the temperature, or range, at which the solid turns liquid. As for `Cl.N=C(N)c1ccc(-c2ccc(-c3ccc(C(=N)N)cc3)c(C(F)(F)F)c2)cc1` [Compound 23b, 2′-Trifluoromethyl-[1,1′;4′,1″]terphenyl-4,4″-bis-amidine hydrochloride salt], the melting point is > 300 °C. In addition, in the data set with DNA minor groove (Table 1), the ΔTm is 10.1 °C. Further, the IC50 in data set [1] (setting [5]) came out at 48 nM. Further, in data set [2] (Leishmania donovani, Table 1), the IC50 was 3000 nM. The IC50 in data set [3] (setting [6]) worked out at 15 nM. For the same compound, the IC50 with L-6 rat mycoblast cells (setting [7]) was 9000 nM.
For the compound `N=C(N)c1ccc(-c2ccc3cc(-c4ccc(C(=N)N)cc4)ccc3c2)cc1` [Compound 38b, Phenyl[1,2′]naphthyl[6′,1″]phenyl-4,4″-bis-amidine], in the data set on DNA minor groove (Table 2), the ΔTm amounted to 18.2 °C. Besides, the IC50 in data set [1] (Table 2, K = thousand) turned out to be 53 nM; in data set [2] (Table 2), 280 nM; in data set [3] (Table 2, K = thousand), 19 nM; in the data set on L-6 rat mycoblast cells it was 8000 nM.
As to `N=C(N)Nc1ccc(-c2ccc(-c3ccc(NC(=N)N)cc3)cc2)cc1` [Compound 48, 4,4″-Bis-guanidino-[1,1′;4′,1″]terphenyl], the ΔTm in the data set with DNA minor groove (Table 1) was found to be 12.2 °C. For the same compound, the IC50 in data set [1] (setting [5]) came to 18 nM; in data set [2] (Leishmania donovani, Table 1), 1200 nM; in data set [3] (setting [6]), 27 nM; with L-6 rat mycoblast cells (Rattus norvegicus, L6, read-out: CT IC50, Table 1, L-6 cells), 25400 nM. Moreover, the Survival in data set [4] (20 mg/kg ip, days 3-6 post-infection, average days of survival) was >60 days. Further, in data set [4] (Trypanosoma brucei, 1440 h, 20 mg/kg ip, days 3-6 post-infection, mice surviving parasite free for 60 days, groups of four, read-out: Cures (converted)), the responders at 20 mg/kg was 0%.
On to `N=C(N)c1ccc(-c2ccc(-c3ccc(C(=N)N)nc3)cc2)cn1` [Compound 66, 1,4-Bis-(2′-amidinopyridin-5′-yl)-phenylene hydrochloride salt], for which the ΔTm in the data set with DNA minor groove (Table 1) was determined as 16.1 °C. Besides, the IC50 was determined as 720 nM in data set [2] (Leishmania donovani, Table 1); 63 nM in data set [2] (Leishmania donovani, Table 4); 31300 nM in the data set on L-6 rat mycoblast cells (setting [7]); 1200 nM in the data set with L-6 rat mycoblast cells (Rattus norvegicus, L6, read-out: CT IC50, Table 4, L-6 cells). In data set [4] (5 mg/kg ip, Table 5), the Cures is 0/4. Further, in data set [4] (5 mg/kg ip, Table 5), the Survival was > 51.5 days.
